Experimental data as given in the supplement of paper PMC10307832.

Key:
Test in all cases: relative viability (nuclei count vs DMSO), 5 days (fraction); higher = more cells survive
Entinostat + Navitoclax = compound: Nc1ccccc1NC(=O)c1ccc(CNC(=O)OCc2cccnc2)cc1 [Entinostat] + CC1(C)CCC(c2ccc(Cl)cc2)=C(CN2CCN(c3ccc(C(=O)NS(=O)(=O)c4ccc(N[C@H](CCN5CCOCC5)CSc5ccccc5)c(S(=O)(=O)C(F)(F)F)c4)cc3)CC2)C1 [Navitoclax] (partner 0.5 µM)
Procedure, shortened: (§1)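 After 5 days of treatment, lung cancer cells in 1536-well plates were fixed and stained in a single step (final 0.05% Triton X-100, 1% formaldehyde, 1 ug/ml Hoechst) and their nuclei counted on 4× images. Treatment had been applied by pin tool the day after seeding as one drug alone or as a fixed anchor-drug dose with five library-drug doses (not always all listed) in √10 steps. Relative viability is the nuclei count of treated wells divided by that of vehicle wells, and values are medians of duplicate plates.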

[1] = compound: C1COCCN1C2=NC(=NC3=C2OC4=C3C=CC=N4)C5=CC(=CC=C5)NC(=O)C6=CN=C(C=C6)N + CS(=O)(=O)N1CCN(Cc2cc3nc(-c4cccc5[nH]ncc45)nc(N4CCOCC4)c3s2)CC1 [Pictilisib] (partner 1 µM)
Procedure, shortened: as §1

[2] = compound: C1COCCN1C2=NC(=NC3=C2OC4=C3C=CC=N4)C5=CC(=CC=C5)NC(=O)C6=CN=C(C=C6)N + CC(=O)c1c(C)c2cnc(Nc3ccc(N4CCNCC4)cn3)nc2n(C2CCCC2)c1=O [Palbociclib] (partner 0.5 µM)
Procedure, shortened: as §1

Entinostat + Linsitinib = compound: Nc1ccccc1NC(=O)c1ccc(CNC(=O)OCc2cccnc2)cc1 [Entinostat] + C[C@]1(O)C[C@@H](c2nc(-c3ccc4ccc(-c5ccccc5)nc4c3)c3c(N)nccn32)C1 [Linsitinib] (partner 1 µM)
Procedure, shortened: as §1

NCI-H2170
relative viability (Entinostat + Navitoclax; first compound 0.02 µM): 0.626
relative viability (Entinostat + Navitoclax; first compound 0.06325 µM): 0.553
relative viability (Entinostat + Navitoclax; first compound 0.2 µM): 0.502
relative viability (Entinostat + Navitoclax; first compound 0.6325 µM): 0.33
relative viability (Entinostat + Navitoclax; first compound 2 µM): 0.196
relative viability ([1]; first compound 0.02 µM): 0.328
relative viability ([1]; first compound 0.06325 µM): 0.316
relative viability ([1]; first compound 0.2 µM): 0.299
relative viability ([1]; first compound 0.6325 µM): 0.299
relative viability ([1]; first compound 2 µM): 0.304
relative viability ([2]; first compound 0.02 µM): 0.405
relative viability ([2]; first compound 0.06325 µM): 0.395
relative viability ([2]; first compound 0.2 µM): 0.407
relative viability ([2]; first compound 0.6325 µM): 0.422
relative viability ([2]; first compound 2 µM): 0.275

NCI-H522
relative viability ([2]; first compound 0.02 µM): 0.798
relative viability ([2]; first compound 0.06325 µM): 0.984
relative viability ([2]; first compound 0.2 µM): 0.884
relative viability ([2]; first compound 0.6325 µM): 0.743
relative viability ([2]; first compound 2 µM): 0.838

LOU-NH91
relative viability (Entinostat + Linsitinib; first compound 0.02 µM): 0.911
relative viability (Entinostat + Linsitinib; first compound 0.06325 µM): 1.02
relative viability (Entinostat + Linsitinib; first compound 0.2 µM): 0.95
relative viability (Entinostat + Linsitinib; first compound 0.6325 µM): 0.816
relative viability (Entinostat + Linsitinib; first compound 2 µM): 0.714
relative viability (Entinostat + Navitoclax; first compound 0.02 µM): 0.72
relative viability (Entinostat + Navitoclax; first compound 0.06325 µM): 0.721
relative viability (Entinostat + Navitoclax; first compound 0.2 µM): 0.625
relative viability (Entinostat + Navitoclax; first compound 0.6325 µM): 0.428
relative viability (Entinostat + Navitoclax; first compound 2 µM): 0.315
relative viability ([1]; first compound 0.02 µM): 0.48
relative viability ([1]; first compound 0.06325 µM): 0.531
relative viability ([1]; first compound 0.2 µM): 0.51
relative viability ([1]; first compound 0.6325 µM): 0.521
relative viability ([1]; first compound 2 µM): 0.512
relative viability ([2]; first compound 0.02 µM): 0.541
relative viability ([2]; first compound 0.06325 µM): 0.551
relative viability ([2]; first compound 0.2 µM): 0.565
relative viability ([2]; first compound 0.6325 µM): 0.49
relative viability ([2]; first compound 2 µM): 0.535

NCI-H1355
relative viability (Entinostat + Linsitinib; first compound 0.02 µM): 0.811
relative viability (Entinostat + Linsitinib; first compound 0.06325 µM): 0.769
relative viability (Entinostat + Linsitinib; first compound 0.2 µM): 0.653
relative viability (Entinostat + Linsitinib; first compound 0.6325 µM): 0.551
relative viability (Entinostat + Linsitinib; first compound 2 µM): 0.468
relative viability (Entinostat + Navitoclax; first compound 0.02 µM): 0.987
relative viability (Entinostat + Navitoclax; first compound 0.06325 µM): 0.946
relative viability (Entinostat + Navitoclax; first compound 0.2 µM): 0.747
relative viability (Entinostat + Navitoclax; first compound 0.6325 µM): 0.583
relative viability (Entinostat + Navitoclax; first compound 2 µM): 0.444
relative viability ([1]; first compound 0.02 µM): 0.336
relative viability ([1]; first compound 0.06325 µM): 0.424
relative viability ([1]; first compound 0.2 µM): 0.413
relative viability ([1]; first compound 0.6325 µM): 0.423
relative viability ([1]; first compound 2 µM): 0.459
relative viability ([2]; first compound 0.02 µM): 0.371
relative viability ([2]; first compound 0.06325 µM): 0.385
relative viability ([2]; first compound 0.2 µM): 0.423
relative viability ([2]; first compound 0.6325 µM): 0.609
relative viability ([2]; first compound 2 µM): 0.354

NCI-H322M
relative viability (Entinostat + Linsitinib; first compound 0.02 µM): 0.885
relative viability (Entinostat + Linsitinib; first compound 0.06325 µM): 1.04
relative viability (Entinostat + Linsitinib; first compound 0.2 µM): 0.883
relative viability (Entinostat + Linsitinib; first compound 0.6325 µM): 0.89
relative viability (Entinostat + Linsitinib; first compound 2 µM): 0.65
relative viability (Entinostat + Navitoclax; first compound 0.02 µM): 1.3
relative viability (Entinostat + Navitoclax; first compound 0.06325 µM): 1.17
relative viability (Entinostat + Navitoclax; first compound 0.2 µM): 1.27
relative viability (Entinostat + Navitoclax; first compound 0.6325 µM): 1.27
relative viability (Entinostat + Navitoclax; first compound 2 µM): 0.845
relative viability ([1]; first compound 0.02 µM): 0.508
relative viability ([1]; first compound 0.06325 µM): 0.542
relative viability ([1]; first compound 0.2 µM): 0.474
relative viability ([1]; first compound 0.6325 µM): 0.585
relative viability ([1]; first compound 2 µM): 0.484
relative viability ([2]; first compound 0.02 µM): 0.485
relative viability ([2]; first compound 0.06325 µM): 0.536
relative viability ([2]; first compound 0.2 µM): 0.54
relative viability ([2]; first compound 0.6325 µM): 0.48
relative viability ([2]; first compound 2 µM): 0.384

NCI-H1395
relative viability (Entinostat + Linsitinib; first compound 0.02 µM): 1.1
relative viability (Entinostat + Linsitinib; first compound 0.06325 µM): 1.13
relative viability (Entinostat + Linsitinib; first compound 0.2 µM): 1.01
relative viability (Entinostat + Linsitinib; first compound 0.6325 µM): 0.885
relative viability (Entinostat + Linsitinib; first compound 2 µM): 0.594
relative viability (Entinostat + Navitoclax; first compound 0.02 µM): 1.12
relative viability (Entinostat + Navitoclax; first compound 0.06325 µM): 1.25
relative viability (Entinostat + Navitoclax; first compound 0.2 µM): 1.19
relative viability (Entinostat + Navitoclax; first compound 0.6325 µM): 0.875
relative viability (Entinostat + Navitoclax; first compound 2 µM): 0.794
relative viability ([1]; first compound 0.02 µM): 0.699
relative viability ([1]; first compound 0.06325 µM): 0.604
relative viability ([1]; first compound 0.2 µM): 0.569
relative viability ([1]; first compound 0.6325 µM): 0.587
relative viability ([1]; first compound 2 µM): 0.57
relative viability ([2]; first compound 0.02 µM): 0.602
relative viability ([2]; first compound 0.06325 µM): 0.597
relative viability ([2]; first compound 0.2 µM): 0.617
relative viability ([2]; first compound 0.6325 µM): 0.592
relative viability ([2]; first compound 2 µM): 0.645

NCI-H2023
relative viability (Entinostat + Linsitinib; first compound 0.02 µM): 0.671
relative viability (Entinostat + Linsitinib; first compound 0.06325 µM): 0.778
relative viability (Entinostat + Linsitinib; first compound 0.2 µM): 0.48
relative viability (Entinostat + Linsitinib; first compound 0.6325 µM): 0.191
relative viability (Entinostat + Linsitinib; first compound 2 µM): 0.133
relative viability (Entinostat + Navitoclax; first compound 0.02 µM): 0.916
relative viability (Entinostat + Navitoclax; first compound 0.06325 µM): 0.692
relative viability (Entinostat + Navitoclax; first compound 0.2 µM): 0.496
relative viability (Entinostat + Navitoclax; first compound 0.6325 µM): 0.163
relative viability (Entinostat + Navitoclax; first compound 2 µM): 0.138
relative viability ([1]; first compound 0.02 µM): 0.273
relative viability ([1]; first compound 0.06325 µM): 0.211
relative viability ([1]; first compound 0.2 µM): 0.216
relative viability ([1]; first compound 0.6325 µM): 0.23
relative viability ([1]; first compound 2 µM): 0.193
relative viability ([2]; first compound 0.02 µM): 0.378
relative viability ([2]; first compound 0.06325 µM): 0.384
relative viability ([2]; first compound 0.2 µM): 0.316
relative viability ([2]; first compound 0.6325 µM): 0.256
relative viability ([2]; first compound 2 µM): 0.172

NCI-H1666
relative viability (Entinostat + Linsitinib; first compound 0.02 µM): 0.874
relative viability (Entinostat + Linsitinib; first compound 0.06325 µM): 0.783
relative viability (Entinostat + Linsitinib; first compound 0.2 µM): 0.476
relative viability (Entinostat + Linsitinib; first compound 0.6325 µM): 0.498
relative viability (Entinostat + Linsitinib; first compound 2 µM): 0.313
relative viability (Entinostat + Navitoclax; first compound 0.02 µM): 1.13
relative viability (Entinostat + Navitoclax; first compound 0.06325 µM): 1.09
relative viability (Entinostat + Navitoclax; first compound 0.2 µM): 0.861
relative viability (Entinostat + Navitoclax; first compound 0.6325 µM): 0.463
relative viability (Entinostat + Navitoclax; first compound 2 µM): 0.277
relative viability ([1]; first compound 0.02 µM): 0.466
relative viability ([1]; first compound 0.06325 µM): 0.38
relative viability ([1]; first compound 0.2 µM): 0.404
relative viability ([1]; first compound 0.6325 µM): 0.311
relative viability ([1]; first compound 2 µM): 0.41
relative viability ([2]; first compound 0.02 µM): 0.627
relative viability ([2]; first compound 0.06325 µM): 0.681
relative viability ([2]; first compound 0.2 µM): 0.672
relative viability ([2]; first compound 0.6325 µM): 0.622
relative viability ([2]; first compound 2 µM): 0.571

HARA
relative viability (Entinostat + Linsitinib; first compound 0.02 µM): 0.917
relative viability (Entinostat + Linsitinib; first compound 0.06325 µM): 0.938
relative viability (Entinostat + Linsitinib; first compound 0.2 µM): 0.938
relative viability (Entinostat + Linsitinib; first compound 0.6325 µM): 0.793
relative viability (Entinostat + Linsitinib; first compound 2 µM): 0.577
relative viability (Entinostat + Navitoclax; first compound 0.02 µM): 1.18
relative viability (Entinostat + Navitoclax; first compound 0.06325 µM): 1.14
relative viability (Entinostat + Navitoclax; first compound 0.2 µM): 1.12
relative viability (Entinostat + Navitoclax; first compound 0.6325 µM): 1.09
relative viability (Entinostat + Navitoclax; first compound 2 µM): 0.935
relative viability ([1]; first compound 0.02 µM): 0.273
relative viability ([1]; first compound 0.06325 µM): 0.319
relative viability ([1]; first compound 0.2 µM): 0.329
relative viability ([1]; first compound 0.6325 µM): 0.326
relative viability ([1]; first compound 2 µM): 0.291
relative viability ([2]; first compound 0.02 µM): 0.207
relative viability ([2]; first compound 0.06325 µM): 0.242
relative viability ([2]; first compound 0.2 µM): 0.246
relative viability ([2]; first compound 2 µM): 0.263
